pIC50: −log10 of the molar value.
What follows are molecules tested against T1, human EHMT2 913-1193 (Homo sapiens, UniProt Q96KQ7) (assay: EHMT2 enzyme assay on histone peptide substrate (EHMT2 PEP)). Details: Table VII; read-out: EHMT2 PEP IC50.
T1 construct: recombinant purified human EHMT2 913-1193, Viva; purchased Viva
T1 sequence (Q96KQ7 913-1193): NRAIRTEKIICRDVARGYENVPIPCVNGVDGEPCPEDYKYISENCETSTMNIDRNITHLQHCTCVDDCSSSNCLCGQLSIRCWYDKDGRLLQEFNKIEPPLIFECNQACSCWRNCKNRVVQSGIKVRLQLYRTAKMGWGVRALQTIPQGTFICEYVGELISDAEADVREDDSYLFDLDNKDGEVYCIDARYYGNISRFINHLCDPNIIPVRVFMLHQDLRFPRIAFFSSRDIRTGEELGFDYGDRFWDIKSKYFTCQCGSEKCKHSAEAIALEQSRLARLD
Format: biochemical
Procedure, shortened: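 Compounds were tested as 3-fold dilutions, 10 points from a 50 μM final top (2% DMSO), after 30-min preincubation with 0.031 nM enzyme in Bicine buffer pH 7.5. Transfer of ^3H-methyl from ^3H-SAM to biotinylated histone peptide ran 60 min at room temperature and was detected by streptavidin Flashplate scintillation.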

| SMILES | pIC50 |
| --- | --- |
| CNc1cc(C2CCOCC2)c2cc(OC)c(CNCCN3CCCC3)cc2n1 [Compound 1111] | > 7.00 |
| CNc1cc(C)nc(Nc2ccc(C)c(C(=O)NCc3ccon3)c2)n1 [Compound 1114] | < 5.00 |

The next lines start with the values.

| pIC50 | SMILES |
| --- | --- |
| 6.00 to 7.00 | CNc1cc(C)nc(Nc2ccc(OC)c(OC[C@@H](O)CN3CCCC3)c2)n1 [Compound 1044] |
| > 7.00 | CNc1cc(C)nc(Nc2ccc(OC)c(OC[C@H](O)CN3CCCC3)c2)n1 [Compound 1045] |
| 5.00 to 6.00 | CNc1ccnc(Nc2ccc(OC)c(OC[C@@H](O)CN3CCC3)c2)n1 [Compound 1046] |
| > 7.00 | CNc1cc(C2CCOCC2)c2cc(OC)c(OC[C@H](O)CN3CCC3)cc2n1 [Compound 1108] |
| 5.00 to 6.00 | CNc1cc(C)nc(Nc2ccc(OC)c(CNCCNC3CCC3)c2)n1 [Compound 1109] |
| 6.00 to 7.00 | CNc1cc(C)nc(Nc2cnc(OC)c(CNCCN3CCC3)c2)n1 [Compound 1110] |
| 6.00 to 7.00 | CNc1cc(C)nc(Nc2ccc(OC)c(OC[C@H](O)CN(C)C)c2)n1 [Compound 1112] |
| 6.00 to 7.00 | CCN(C)C[C@@H](O)COc1cc(Nc2nc(C)cc(NC)n2)ccc1OC [Compound 1113] |

Same assay, conditions: recombinant human EHMT2 913-1193, histone H3 1-15 peptide, balanced conditions; read-out: EHMT2 PEP (IC50 μM)

| SMILES | IC50 [µM] |
| --- | --- |
| CNc1nc(C2CCCC2)c2cc(OC)c(OCCCN3CCCC3)cc2n1 [Compound 518, 4-cyclopentyl-6-methoxy-N-methyl-7-(3-(pyrrolidin-1-yl)propoxy)quinazolin-2-amine] | 1 to 10 |
| CNc1nc(C2CCN(C(C)=O)CC2)c2cc(OC)c(OCCCN3CCCC3)cc2n1 [Compound 519] | 0.1 to 1 |
| CNc1nc(C2CCNCC2)c2cc(OC)c(OCCCN3CCCC3)cc2n1 [Compound 520] | < 0.1 |
| CNc1nc(C2CCOCC2)c2cc(OC)c(OCCCN3CCCC3)cc2n1 [Compound 521] | 1 to 10 |
| CNc1nc(C2=CCOCC2)c2cc(OC)c(OCCCN3CCCC3)cc2n1 [Compound 522] | 1 to 10 |
| CNc1nc(C2CCCCC2)c2cc(OC)c(OCCCN3CCCC3)cc2n1 [Compound 523, 4-cyclohexyl-6-methoxy-N-methyl-7-(3-(pyrrolidin-1-yl)propoxy)quinazolin-2-amine] | 1 to 10 |
| CNc1nc(C2CCN(C(C)C)CC2)c2cc(OC)c(OC[C@@H]3CCN(C4CC4)C3)cc2n1 [Compound 526] | < 0.1 |
| COc1cc2c(C3CCN(C)CC3)nc(N3CCCC3)nc2cc1OCCCN1CCCC1 [Compound 527] | < 0.1 |
| COc1cc2c(C3CCN(C)CC3)nc(N3CCC(F)(F)CC3)nc2cc1OCCCN1CCCC1 [Compound 528] | 0.1 to 1 |
| COc1cc2c(C3CCN(C)CC3)nc(NC3CCCC3)nc2cc1OCCCN1CCCC1 [Compound 529] | < 0.1 |
| CNc1nc(C2CCN(C(C)C)CC2)c2cc(OC)c(OCCCN3CCCC3)cc2n1 [Compound 530] | < 0.1 |
| CNc1nc(C2CCN(C)CC2)c2cc(OC)c(OCCCN3CC4CC4C3)cc2n1 (centres unmarked) [Compound 532] | < 0.1 |
| CNc1nc(C2CCN(CCO)CC2)c2cc(OC)c(OCCCN3CCCC3)cc2n1 [Compound 533] | < 0.1 |
| CNc1nc(C2CC(C)(C)NC(C)(C)C2)c2cc(OC)c(OCCCN3CCCC3)cc2n1 [Compound 534] | 1 to 10 |
| COc1cc2c(C3CCN(C)CC3)cc(C)nc2cc1OCCCN1CCCC1 [Compound 536] | < 0.1 |
| CCCCNc1nccc(NC)n1 [Compound 543, N^2-butyl-N^4-methylpyrimidine-2,4-diamine] | > 10 |

Further lines, results first:

| IC50 [µM] | SMILES |
| --- | --- |
| 0.1 to 1 | CNc1cc(C)nc(Nc2ccc(OC)c(OCC3CN(C4CC4)C3)c2)n1 [Compound 510] |
| < 0.1 | CNc1cc(C)nc(Nc2cnc(OC)c(OC[C@@H]3CCN(C4CC4)C3)c2)n1 [Compound 512] |
| 0.1 to 1 | CNc1cc(C)nc(Nc2cnc(OC)c(OCCCN3CC4CC4C3)c2)n1 (centres unmarked) [Compound 514] |
| 1 to 10 | CCc1ncc(Nc2nc(C)cc(NC)n2)cc1OCCCN1CCCC1 [Compound 515] |
| 1 to 10 | CNc1cc(C)nc(Nc2cnc(C3CC3)c(OCCCN3CCCC3)c2)n1 [Compound 516] |
| 0.1 to 1 | CNc1cc(C)nc(Nc2ccc(OC)c(OCC3CCCN(C4CC4)C3)c2)n1 (centres unmarked) [Compound 517a] |
| 0.1 to 1 | CNc1cc(C)nc(Nc2ccc(OC)c(OC[C@H]3CCCN(C4CC4)C3)c2)n1 [Compound 517b] |
| < 0.1 | CNc1cc(C2CCOCC2)c2cc(OC)c(OCCCN3CCCC3)cc2n1 [Compound 524, 6-methoxy-N-methyl-4-(oxan-4-yl)-7-[3-(pyrrolidin-1-yl)propoxy]quinolin-2-amine] |
| < 0.1 | CNc1cc(C2CCN(C)CC2)c2cc(OC)c(OCCCN3CCCC3)cc2n1 [Compound 535] |
